From patent publication US12180167B1, “6-[4,4-bis(4-bromophenyl)-2,5-dioxoimidazolidin-1-yl]hexanoic acid as an antimicrobial compound” (KING FAISAL UNIVERSITY, priority 2024, dated 2024)

How the values were obtained:
Assay type in all cases: cell-based
Details in all cases: after 10, 20, 40 and 60 minutes at all dilutions 1:100, 1:200, 1:400, 1:800
Pseudomonas aeruginosa = assay: Antimicrobial testing by agar dilution, Ps. aeruginosa
Description: (§1) The antimicrobial properties of the 6-[4,4-bis(4-bromophenyl)-2,5-dioxoimidazolidin-1-yl]hexanoic acid were studied by the method of agar dilution. Test solutions of each compound was prepared in concentration of 1% using dimethylformamide as a solvent then they are diluted in physiological solution to obtain the final experimental dilutions 1:100, 1:200, 1:400, 1:800. The effect of these substances are compared with furacillin in a controllable study. The testing microbes used were gram positive bacteria Staphylococcus aereus, gram negative bacteria Escherichia Coli, Pseudomonas aeruginosa and Candida albicans fungi were taken. The experiments used for this survey were meat-pentonlu agar (EPA) for cultivation of bacteria and Saburo environment for fungi. Each experiment used 1 ml of test solution on each plate 500 min. Add 2 drops of emulsified with microbes feel. All experimental samples were taken from the agar after 10, 20, 40, 60 minutes in the environment on the basis of Patrk planted. Bacteria were cultivated at a temperature of 37° C. for 1 day and the mushroom was kept in a thermostat for 2 hours at a temperature of 28° C. in the. Then results were checked.

Candida albicans = assay: Antimicrobial testing by agar dilution, Candida albicans
Description: as §1

Escherichia Coli = assay: Antimicrobial testing by agar dilution, E. Coli
Description: as §1

Staphylococcus aereus = assay: Antimicrobial testing by agar dilution, St. Aereus
Description: as §1

O=C(O)CCCCCN1C(=O)NC(c2ccc(Br)cc2)(c2ccc(Br)cc2)C1=O [6-[4,4-bis(4-bromophenyl)-2,5-dioxoimidazolidin-1-yl]hexanoic acid]
higher inhibition activity: inhibition activity, Pseudomonas aeruginosa (Pseudomonas aeruginosa) | inhibition activity, Candida albicans (Candida albicans) | inhibition activity, Escherichia Coli (Escherichia Coli) | inhibition activity, Staphylococcus aereus (Staphylococcus aereus)
